According to US20240270762A1, “PENICILLIN-BINDING PROTEIN INHIBITORS” (priority 2021, published 2024):
pEC50, pIC50: −log10 of the molar value. Values after ≈ are worked out from the molar mass of the structure shown.

What was measured:
[1] = biological target: A. baumannii PBP2 (Acinetobacter baumannii, UniProt D0C8Z9); test: Bocillin-FL competition binding via gel filtration, A. baumannii PBP2
How it was run: (§1)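 Competitive equilibrium binding with Bocillin-FL reporter: PBP pre-incubated with inhibitor dilutions, Bocillin-FL added, 15 min incubation. Labelled enzyme isolated by size-exclusion spin plates, fluorescence measured; EC50 obtained by fitting bound fraction against inhibitor concentration with a Hill-coefficient model.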

[2] = biological target: T1, A. baumannii PBP1a (Acinetobacter baumannii, UniProt A0ABX6CK30); test: Bocillin-FL competition binding via gel filtration, A. baumannii PBP1a; details: competition binding assay using Bocillin-FL via gel filtration; read-out: A. baumannii PBP1a Potency
T1 sequence (A0ABX6CK30 1-851): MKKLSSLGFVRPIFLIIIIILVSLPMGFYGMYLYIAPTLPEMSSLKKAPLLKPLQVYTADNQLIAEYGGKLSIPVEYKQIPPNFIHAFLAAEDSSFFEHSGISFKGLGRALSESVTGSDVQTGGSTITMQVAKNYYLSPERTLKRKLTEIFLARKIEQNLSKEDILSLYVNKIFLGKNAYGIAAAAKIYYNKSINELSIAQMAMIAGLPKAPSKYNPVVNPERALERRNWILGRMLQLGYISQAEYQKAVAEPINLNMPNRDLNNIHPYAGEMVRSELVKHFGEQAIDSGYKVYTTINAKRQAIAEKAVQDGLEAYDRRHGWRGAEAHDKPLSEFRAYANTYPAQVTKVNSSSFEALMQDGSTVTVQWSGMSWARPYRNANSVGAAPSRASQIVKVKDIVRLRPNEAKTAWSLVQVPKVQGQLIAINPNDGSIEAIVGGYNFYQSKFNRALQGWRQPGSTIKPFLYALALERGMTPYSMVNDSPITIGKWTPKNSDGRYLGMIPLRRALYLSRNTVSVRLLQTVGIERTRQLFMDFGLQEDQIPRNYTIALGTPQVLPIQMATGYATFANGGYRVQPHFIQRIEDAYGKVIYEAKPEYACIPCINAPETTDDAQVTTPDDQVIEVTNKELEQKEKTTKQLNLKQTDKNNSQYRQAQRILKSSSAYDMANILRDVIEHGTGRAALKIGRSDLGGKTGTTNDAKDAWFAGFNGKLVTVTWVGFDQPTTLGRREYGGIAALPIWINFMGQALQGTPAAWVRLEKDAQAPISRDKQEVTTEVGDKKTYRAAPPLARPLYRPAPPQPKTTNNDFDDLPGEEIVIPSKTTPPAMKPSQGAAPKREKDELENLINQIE
How it was run: as §1

[3] = test system: A. baumannii CDC-0045; test: microbe, parasite or virus in culture; assay type: cell-based; details: Acinetobacter baumannii, CDC0045, read-out: MIC, A. baumannii CDC-0045
[4] = test system: A. baumannii CDC-0033; test: microbe, parasite or virus in culture; assay type: cell-based; details: Acinetobacter baumannii, CDC0033, read-out: MIC, A. baumannii CDC-0033
[5] = biological target: T2, PBP3 from Pseudomonas aeruginosa (PAO1) (Pseudomonas aeruginosa, UniProt G3XD46); test: Bocillin-FL fluorescence polarization competition binding, P. aeruginosa PBP3; details: Binding affinity to P. aeruginosa PBP3; fluorescence polarization competition binding assay using Bocillin-FL; read-out: P. aeruginosa PBP3 Potency
T2 construct: made in house
T2 sequence (G3XD46 whole entry): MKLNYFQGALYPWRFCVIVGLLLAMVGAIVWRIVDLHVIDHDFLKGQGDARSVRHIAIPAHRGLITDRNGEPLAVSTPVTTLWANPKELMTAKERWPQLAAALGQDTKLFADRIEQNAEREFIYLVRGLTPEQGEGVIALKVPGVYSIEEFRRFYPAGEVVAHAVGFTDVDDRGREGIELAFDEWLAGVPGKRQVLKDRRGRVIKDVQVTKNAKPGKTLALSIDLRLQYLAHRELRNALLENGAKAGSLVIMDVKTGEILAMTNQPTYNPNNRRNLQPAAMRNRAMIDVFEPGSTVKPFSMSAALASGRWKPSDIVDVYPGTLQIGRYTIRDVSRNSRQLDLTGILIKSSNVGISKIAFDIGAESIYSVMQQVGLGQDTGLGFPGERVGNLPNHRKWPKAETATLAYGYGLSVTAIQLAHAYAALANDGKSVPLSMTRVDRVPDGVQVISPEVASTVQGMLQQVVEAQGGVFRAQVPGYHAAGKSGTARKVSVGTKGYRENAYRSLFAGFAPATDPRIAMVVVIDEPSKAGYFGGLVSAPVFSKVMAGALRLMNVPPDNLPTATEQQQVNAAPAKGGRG
How it was run: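 Purified PBP was preincubated with inhibitor (E. coli PBP3 1.5 μM, 30 min; P. aeruginosa PBP3 0.75 μM, A. baumannii PBP3 0.2 μM and PBP1a 1 μM, 15 min), then Bocillin-FL (0.1 μM; 0.05 μM for PBP1a) added and FP read up to 60 min. EC50 = 50% loss of bound probe.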

[6] = test system: P. aeruginosa CDC-0095; test: microbe, parasite or virus in culture; assay type: cell-based; details: Pseudomonas aeruginosa, CDC0095, read-out: Minimum inhibitory concentration, P. aeruginosa CDC-0095

Sequence of A. baumannii PBP2 (D0C8Z9 whole entry): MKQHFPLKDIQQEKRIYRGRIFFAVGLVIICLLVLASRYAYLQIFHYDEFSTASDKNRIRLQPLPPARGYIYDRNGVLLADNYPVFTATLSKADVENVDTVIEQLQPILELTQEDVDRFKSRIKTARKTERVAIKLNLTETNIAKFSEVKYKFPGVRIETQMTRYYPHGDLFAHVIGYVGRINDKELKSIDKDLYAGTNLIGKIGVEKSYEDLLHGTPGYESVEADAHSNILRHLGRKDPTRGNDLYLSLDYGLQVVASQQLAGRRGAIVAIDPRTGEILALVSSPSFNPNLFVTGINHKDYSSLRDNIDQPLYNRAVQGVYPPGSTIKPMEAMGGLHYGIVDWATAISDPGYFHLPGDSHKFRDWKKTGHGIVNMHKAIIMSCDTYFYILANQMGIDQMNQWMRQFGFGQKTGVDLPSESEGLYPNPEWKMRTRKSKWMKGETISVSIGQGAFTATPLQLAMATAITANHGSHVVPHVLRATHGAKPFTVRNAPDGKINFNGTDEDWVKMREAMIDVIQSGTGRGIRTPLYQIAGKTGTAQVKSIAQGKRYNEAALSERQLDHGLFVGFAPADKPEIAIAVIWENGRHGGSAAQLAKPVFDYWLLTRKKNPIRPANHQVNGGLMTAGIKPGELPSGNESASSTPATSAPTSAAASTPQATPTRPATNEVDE

Compound | pEC50 [1] | pEC50 [2] | MIC [3] [µg/mL] | MIC [4] [µg/mL] | pIC50 [5] | MIC [6] [µg/mL]
O=C(NCCS(=O)(=O)N1CCN(C(=O)NC(C(=O)N[C@H]2Cc3ccc(F)c(C(=O)O)c3OB2O)c2cc(F)c(O)c(O)c2Cl)C1=O)Nc1ccc(O)cc1 (stereo partly drawn) [Example 289, (3R)-3-(2-(2-chloro-5-fluoro-3,4-dihydroxyphenyl)-2-(3-((2-(3-(4-hydroxyphenyl)ureido)ethyl)sulfonyl)-2-oxoimidazolidine-1-carboxamido)acetamido)-7-fluoro-2-hydroxy-3,4-dihydro-2H-benzo[e][1,2]oxaborinine-8-carboxylic acid] | 4.30 to 5.00 | > 5.00 | 2 to 4 (≈ 2.51 to 5.02 µM) | 2 to 4 (≈ 2.51 to 5.02 µM) | > 5.00 | 2 to 4 (≈ 2.51 to 5.02 µM)
O=C(O)c1c(F)ccc2c1OB(O)[C@@H](NC(=O)C(NC(=O)N1CCN(C3CCN(C(=O)c4cccc(O)c4)CC3)C(=O)C1=O)c1cc(F)c(O)c(O)c1Cl)C2 (stereo partly drawn) [Example 293, (3R)-3-(2-(2-chloro-5-fluoro-3,4-dihydroxyphenyl)-2-(4-(1-(3-hydroxybenzoyl)piperidin-4-yl)-2,3-dioxopiperazine-1-carboxamido)acetamido)-7-fluoro-2-hydroxy-3,4-dihydro-2H-benzo[e][1,2]oxaborinine-8-carboxylic acid] | 4.30 to 5.00 | 4.30 to 5.00 | < 1 | 2 to 4 (≈ 2.54 to 5.09 µM) | > 5.00 | 2 to 4 (≈ 2.54 to 5.09 µM)
O=C(NCCCN1CCN(C(=O)NC(C(=O)N[C@H]2Cc3ccc(F)c(C(=O)O)c3OB2O)c2cc(F)c(O)c(O)c2Cl)C(=O)C1=O)c1ccncc1Cl (stereo partly drawn) [Example 295, (3R)-3-(2-(2-chloro-5-fluoro-3,4-dihydroxyphenyl)-2-(4-(3-(3-chloroisonicotinamido)propyl)-2,3-dioxopiperazine-1-carboxamido)acetamido)-7-fluoro-2-hydroxy-3,4-dihydro-2H-benzo[e][1,2]oxaborinine-8-carboxylic acid] | 4.30 to 5.00 | 4.30 to 5.00 | < 1 | 2 to 4 (≈ 2.57 to 5.13 µM) | > 5.00 | < 1
O=C(NCCCN1CCN(C(=O)N[C@@H](C(=O)N[C@H]2Cc3ccc(F)c(C(=O)O)c3OB2O)c2cc(F)c(O)c(O)c2Cl)C(=O)C1=O)c1ccncc1O [Example 296, (R)-3-((R)-2-(2-chloro-5-fluoro-3,4-dihydroxyphenyl)-2-(4-(3-(3-hydroxyisonicotinamido)propyl)-2,3-dioxopiperazine-1-carboxamido)acetamido)-7-fluoro-2-hydroxy-3,4-dihydro-2H-benzo[e][1,2]oxaborinine-8-carboxylic acid] | > 5.00 | > 5.00 | < 1 | 2 to 4 (≈ 2.63 to 5.26 µM) | > 5.00 | < 1
Cc1cnccc1C(=O)NCCCN1CCN(C(=O)NC(C(=O)N[C@H]2Cc3ccc(F)c(C(=O)O)c3OB2O)c2cc(F)c(O)c(O)c2Cl)C(=O)C1=O (stereo partly drawn) [Example 297, (3R)-3-(2-(2-chloro-5-fluoro-3,4-dihydroxyphenyl)-2-(4-(3-(3-methylisonicotinamido)propyl)-2,3-dioxopiperazine-1-carboxamido)acetamido)-7-fluoro-2-hydroxy-3,4-dihydro-2H-benzo[e][1,2]oxaborinine-8-carboxylic acid] | 4.30 to 5.00 | 4.30 to 5.00 | < 1 | 2 to 4 (≈ 2.64 to 5.27 µM) | > 5.00 | < 1
Cc1cc(C(=O)NCCCN2CCN(C(=O)N[C@@H](C(=O)N[C@H]3Cc4ccc(F)c(C(=O)O)c4OB3O)c3cc(F)c(O)c(O)c3Cl)C(=O)C2=O)ccn1 [Example 298, (R)-3-((R)-2-(2-chloro-5-fluoro-3,4-dihydroxyphenyl)-2-(4-(3-(2-methylisonicotinamido)propyl)-2,3-dioxopiperazine-1-carboxamido)acetamido)-7-fluoro-2-hydroxy-3,4-dihydro-2H-benzo[e][1,2]oxaborinine-8-carboxylic acid] | 4.30 to 5.00 | 4.30 to 5.00 | < 1 | 2 to 4 (≈ 2.64 to 5.27 µM) | > 5.00 | < 1
O=C(NCCCN1CCN(C(=O)NC(C(=O)N[C@H]2Cc3ccc(F)c(C(=O)O)c3OB2O)c2cc(F)c(O)c(O)c2Cl)C(=O)C1=O)c1ccc(O)c(Cl)c1 (stereo partly drawn) [Example 305, (3R)-3-(2-(4-(3-(3-chloro-4-hydroxybenzamido)propyl)-2,3-dioxopiperazine-1-carboxamido)-2-(2-chloro-5-fluoro-3,4-dihydroxyphenyl)acetamido)-7-fluoro-2-hydroxy-3,4-dihydro-2H-benzo[e][1,2]oxaborinine-8-carboxylic acid] | > 5.00 | > 5.00 | 2 to 4 (≈ 2.52 to 5.04 µM) | 2 to 4 (≈ 2.52 to 5.04 µM) | > 5.00 | 2 to 4 (≈ 2.52 to 5.04 µM)
O=C(NCCCN1CCN(C(=O)NC(C(=O)N[C@H]2Cc3ccc(F)c(C(=O)O)c3OB2O)c2cc(F)c(O)c(O)c2Cl)C(=O)C1=O)c1ccc(O)c(F)c1F (stereo partly drawn) [Example 306, (3R)-3-(2-(2-chloro-5-fluoro-3,4-dihydroxyphenyl)-2-(4-(3-(2,3-difluoro-4-hydroxybenzamido)propyl)-2,3-dioxopiperazine-1-carboxamido)acetamido)-7-fluoro-2-hydroxy-3,4-dihydro-2H-benzo[e][1,2]oxaborinine-8-carboxylic acid] | > 5.00 | > 5.00 | < 1 | 2 to 4 (≈ 2.51 to 5.03 µM) | > 5.00 | < 1
O=C(NCCCN1CCN(C(=O)NC(C(=O)N[C@H]2Cc3ccc(F)c(C(=O)O)c3OB2O)c2cc(F)c(O)c(O)c2Cl)C(=O)C1=O)c1ccc(O)cc1O (stereo partly drawn) [Example 307, (3R)-3-(2-(2-chloro-5-fluoro-3,4-dihydroxyphenyl)-2-(4-(3-(2,4-dihydroxybenzamido)propyl)-2,3-dioxopiperazine-1-carboxamido)acetamido)-7-fluoro-2-hydroxy-3,4-dihydro-2H-benzo[e][1,2]oxaborinine-8-carboxylic acid] | > 5.00 | > 5.00 | < 1 | 2 to 4 (≈ 2.58 to 5.16 µM) | > 5.00 | < 1
O=C(O)c1c(F)ccc2c1OB(O)[C@@H](NC(=O)C(NC(=O)N1CCN(C3CCN(C(=O)c4c(F)ccc(O)c4F)CC3)C(=O)C1=O)c1cc(F)c(O)c(O)c1Cl)C2 (stereo partly drawn) [Example 308, (3R)-3-(2-(2-chloro-5-fluoro-3,4-dihydroxyphenyl)-2-(4-(1-(2,6-difluoro-3-hydroxybenzoyl)piperidin-4-yl)-2,3-dioxopiperazine-1-carboxamido)acetamido)-7-fluoro-2-hydroxy-3,4-dihydro-2H-benzo[e][1,2]oxaborinine-8-carboxylic acid] | > 5.00 | 4.30 to 5.00 | < 1 | 2 to 4 (≈ 2.43 to 4.87 µM) | > 5.00 | 2 to 4 (≈ 2.43 to 4.87 µM)
O=C(O)c1c(F)ccc2c1OB(O)[C@@H](NC(=O)C(NC(=O)N1CCN(C3CCN(C(=O)c4cc(O)cc(O)c4)CC3)C(=O)C1=O)c1cc(F)c(O)c(O)c1Cl)C2 (stereo partly drawn) [Example 309, (3R)-3-(2-(2-chloro-5-fluoro-3,4-dihydroxyphenyl)-2-(4-(1-(3,5-dihydroxybenzoyl)piperidin-4-yl)-2,3-dioxopiperazine-1-carboxamido)acetamido)-7-fluoro-2-hydroxy-3,4-dihydro-2H-benzo[e][1,2]oxaborinine-8-carboxylic acid] | > 5.00 | 4.30 to 5.00 | < 1 | 2 to 4 (≈ 2.49 to 4.99 µM) | > 5.00 | 2 to 4 (≈ 2.49 to 4.99 µM)
